This note sets out measurements from publication PMC4528135, “Kinetic Investigations of the Role of Factor Inhibiting Hypoxia-inducible Factor (FIH) as an Oxygen Sensor” (The Journal of Biological Chemistry, 2015).

Common to all, as to type: biochemical
Data set [1] deals with T1, FIH (Homo sapiens, UniProt Q9NWT6).
T1 construct: Full-length recombinant FIH, two- and three-consensus ankyrin repeats (2CA and 3CA) were produced as described; His6 (cleaved yes); made in house; host or cells: Escherichia coli BL21(DE3)
The data set is described as follows: Stopped-flow UV-visible spectroscopy, FIH·Fe(II)·2OG·substrate + O2. The settings on record: anaerobic 0.5 mM FIH, 1 mM substrate, 5 mM 2OG, 0.4 mM Fe(II), 50 mM HEPES pH 7.5, mixed 1:1 with O2-saturated buffer at 5 °C; double exponential fit. On the procedure:
Stopped-flow UV-visible spectroscopy experiments were performed as described previously ([32], [42]). Anerobically prepared assay mixtures containing 0.5 mM apo-FIH, 1 mM substrate, 5 mM 2OG, 0.4 mM Fe(II) or 0.8 mM apo-PHD2, 1 mM substrate, 5 mM 2OG, 0.5 mM Fe(II) were rapidly mixed with O2-free/O2-saturated buffer. The reaction was observed over 1000 s using a photodiode array detector, and kinetic traces were analyzed using Origin version 8.51 software. Data were fitted with a double exponential function (y = A1 × exp(−kriset) + A2 × exp(−kfallt) + y0). The A1, A2, and y0 parameters were restricted with upper limits to match the observed amplitude/offset changes.
Kinetic traces were fitted using a double exponential function; the fitting parameters of intermediate formation and decay are summarized in Table 3.
FIGURE 10. Stopped-flow UV-visible absorbance changes upon FIH-catalyzed hydroxylation of HIF-1/2α CAD and ARD substrates. Reaction mixtures containing anaerobic 0.5 mM apo-FIH, 0.4 mM Fe(II), 5 mM 2OG, and 1 mM peptide in HEPES 50 mM (pH 7.5) were rapidly mixed with O2-saturated buffer at 5 °C in 1:1 ratio and analyzed using a photodiode array detector. The data were fitted with a double exponential function. A, decay at 500 nm (representing enzyme·substrate complex depletion) observed upon FIH-catalyzed hydroxylation of ARD substrates compared with HIF-1/2α CAD. B, formation and degradation of 310 nm species observed upon FIH-catalyzed HIF-1/2α CAD and ARD hydroxylation. C, decay at 500 nm observed upon FIH-catalyzed hydroxylation of 1CA, 2CA, and 3CA substrates.

In data set [2] the target is T1, FIH. The data set is described as follows: O2 dependence of FIH-catalyzed hydroxylation (hypoxia workstation). The settings on record: for Km: FIH with the named substrate, 5 μM FIH, 500 μM peptide, 50 μM Fe(II), 1 mM 2OG, 1 mM L-ascorbate, 50 mM HEPES pH 7.5, 37 °C, hypoxia workstation at different pO2, triplicate assays, read-out: Km^app(O2). On the procedure:
(§1) The O2 dependence of FIH-catalyzed reactions was determined by conducting enzymatic assays in an “In vivo 500 Hypoxia Workstation” (Ruskinn) using buffers pre-equilibrated under different pO2 values for 24 h. The O2 dependence of PHD2-catalyzed reactions was determined by conducting enzymatic assays in sealed glass vials with variable N2/O2 contents ([42]). Reactions were stopped by spotting samples onto a matrix-assisted laser desorption/ionization-time of flight mass spectrometry (MALDI-TOF-MS) target plate and immediately mixing with α-cyano-4-hydroxycinnamic acid matrix. Hydroxylation levels were assessed by MALDI-TOF-MS as described ([46]).
FIGURE 4. O2 dependence of FIH- and PHD2-catalyzed hydroxylation of HIF-1/2α. A, O2 dependence of PHD2-catalyzed hydroxylation of HIF-1/2α CODD/NODD 19-mer peptides. 4 μM PHD2, peptide (varied), 50 μM Fe(II), 2OG (varied), 4 mM L-ascorbate in HEPES 50 mM (pH 7.5) were incubated at 37 °C. The different O2 levels were maintained using mass flow controllers ([42]), and the hydroxylation levels were analyzed by MALDI-TOF-MS. B, O2 dependence of FIH-catalyzed hydroxylation of CAD HIF-1/2α 35-mer peptides. Conditions were as follows. 5 μM FIH, 500 μM peptide, 50 μM Fe(II), 1 mM 2OG, 1 mM L-ascorbate in HEPES 50 mM (pH 7.5) were incubated at 37 °C in a hypoxia work station under different pO2. […] Error bars, S.D. of triplicate assays.
FIGURE 8. Time course and O2 dependence of the FIH-catalyzed hydroxylation of HIF-α CAD and ARD substrates. Conditions were as follows. 5 μM FIH, 500 μM peptide, 50 μM Fe(II), 1 mM 2OG, 1 mM L-ascorbate in HEPES 50 mM (pH 7.5) were incubated at 37 °C. For O2 dependence studies, reactions were carried out in a hypoxic work station under different pO2 (assays at >20% O2 conducted using mass flow controllers ([42])). The different hydroxylation levels were analyzed by MALDI-TOF-MS or by LC-MS (for 2CA and 3CA). […] Error bars, S.D. of triplicate assays. A, time course of consensus ARD substrate hydroxylation (tankyrase-1 (tnkrs-1 20-mer and 35-mer) and one-consensus ankyrin repeat 20-mer (1CA)). B, time course of ARD peptide hydroxylation (one-consensus ankyrin repeat 20-mer (1CA), two ankyrin repeats (2CA), and three ankyrin repeats (3CA)). C, O2 dependence of HIF-1/2α CAD, 1CA, and tnkrs-1_35-mer hydroxylation. D, O2 dependence of 1CA, 2CA, and 3CA hydroxylation.

The target of data set [3] is T1, FIH. The data set is described as follows: Steady-state kinetics of FIH-catalyzed peptide/protein hydroxylation (MALDI-TOF-MS or LC-MS). The settings on record: for Km / kcat^app: 50 μM Fe(II), 1 mM L-ascorbate; for 2OG concentration above which substrate inhibition was observed: FIH steady-state assays with the named CAD peptide; for kcat^app: MALDI-TOF-MS or LC-MS. On the procedure: Enzymatic assays were conducted as described ([46], [47]). Unless otherwise stated, the assay mixture typically contained 5 μM FIH, 500 μM substrate, 500 μM 2OG, 1 mM L-ascorbate, and 50 μM Fe(NH4)2(SO4)2 or 4 μM PHD2, 100 μM substrate, 300 μM 2OG, 4 mM L-ascorbate, and 50 μM Fe(NH4)2(SO4)2. For HIF-1α CODD19-mer, the background levels of methionine oxidation resulting from assay conditions were subtracted based on non-enzymatic controls ([48]).
as §1
Samples obtained from FIH kinetic assays with 2CA and 3CA were diluted to a substrate concentration of 5 μM and then analyzed using a Waters® LCT Classic mass spectrometer by electrospray ionization in positive ion mode. An Agilent HP1100 LC system was used, and samples were run through a Phenomenex® Aeris Widepore 3.6-μm XB-C8 150 × 2.1-mm column at 0.5 ml/min in a gradient of phase A (95% H2O, 5% CH3CN, 0.01% formic acid) to phase B (95% CH3CN, 5% H2O, 0.01% formic acid). The LC/MS used the following method: 0–1.5 min, 100% A and then 1.5–12 min linear gradient from 0 to 100% B, 12–14 min 100% B, and 15.0–19.0 min 100% A for re-equilibration of the column. Data were collected and analyzed using MassLynx version 4.0.

The mark [4] stands for this setting: FIH with the named substrate, 0.1–5 μM FIH, 2OG varied, 50 mM HEPES pH 7.5, 37 °C, MALDI-TOF-MS (LC-MS for 2CA, 3CA), triplicate assays, read-out: Km^app(2OG).
[5] abbreviates: FIH, 0.1–5 μM FIH, substrate varied, 2OG fixed, 50 mM HEPES pH 7.5, 37 °C, MALDI-TOF-MS (LC-MS for 2CA, 3CA), triplicate assays, read-out: Km^app(peptide).

Values joined by “and” are separate entries in the source; they are usually repeats but may differ in a detail not shown here. Equal entries are not always repeated.

T1 sequence (Q9NWT6 whole entry): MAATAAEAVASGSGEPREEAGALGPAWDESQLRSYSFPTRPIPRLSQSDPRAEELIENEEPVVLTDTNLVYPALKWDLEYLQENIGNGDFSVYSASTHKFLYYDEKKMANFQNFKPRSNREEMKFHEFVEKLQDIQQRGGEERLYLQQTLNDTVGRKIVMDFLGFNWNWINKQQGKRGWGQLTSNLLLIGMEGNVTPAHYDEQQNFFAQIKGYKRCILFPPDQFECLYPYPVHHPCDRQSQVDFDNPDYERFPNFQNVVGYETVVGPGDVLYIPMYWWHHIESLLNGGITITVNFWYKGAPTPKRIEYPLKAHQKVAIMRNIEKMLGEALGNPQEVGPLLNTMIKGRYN

In general, Km refers to the substrate concentration at which the rate is half of its maximum. With “DESGLPQLTSYDCEVNAPIQGSRNLLQGEELLRAL [HIF-1α CAD35-mer]”, the “Stopped-flow, 500 nm (FIH) kfall phase” value in data set [1] amounted to 4.5 ± 0.3 s⁻¹. The “Stopped-flow, 500 nm (FIH) krise phase” value in data set [1] is 0.009 ± 0.005 s⁻¹. Moreover, the Km in data set [2] turned out to be 110 ± 30 µM; in data set [3] (5 μM FIH, peptide 500-1000 µM fixed, 2OG varied, Figure S3B, read-out: Km^app(2OG), fitting with a substrate inhibition model), 300 ± 100 µM; in data set [3] (setting [4]), 110 ± 20 µM; in data set [3] (setting [5]), 180 ± 30 µM. In data set [2] (FIH-catalyzed hydroxylation, hypoxia workstation, 37 °C), the “Half-saturation of O2” value is recorded as 9–11 % O2. In addition, the “2OG concentration above which substrate inhibition was observed” value in data set [3] is above 100 µM. Moreover, in data set [3] (FIH, 50 mM HEPES pH 7.5, 37 °C), the “kcat^app” value amounted to 0.56 ± 0.04 s⁻¹.

Consider “AAGYNNLEVAEYLLEHGADVNAQDKGGLIPLHNAA [tnkrs-1_35-mer, 35-mer fragment of tankyrase-1, ARD substrate of FIH]”, for which the “Stopped-flow, 500 nm (FIH) kfall phase” value in data set [1] worked out at 14.8 ± 0.2 s⁻¹. For the same sequence, the “Stopped-flow, 500 nm (FIH) krise phase” value in data set [1] came out at 0.27 ± 0.03 s⁻¹. In addition, the Km in data set [2] was determined as 50 ± 10 µM; in data set [3] (setting [4]), 61 ± 7 µM; in data set [3] (setting [5]) it was 14 ± 4 µM. The “kcat^app” value in data set [3] (FIH, 50 mM HEPES pH 7.5, 37 °C) turned out to be 3.0 ± 0.2 s⁻¹.

In the case of “SDKNGSTPLHLAARNGHLEVVKLLLEHGADVNAQDKWGKTAFDISIDNGNEDLAEILQ [2CA, recombinant two-consensus ankyrin repeat protein produced in Escherichia coli]”, the “Stopped-flow, 500 nm (FIH) kfall phase” value in data set [1] is 11.9 ± 0.2 s⁻¹. For the same sequence, the “Stopped-flow, 500 nm (FIH) krise phase” value in data set [1] worked out at 0.6 ± 0.1 s⁻¹. For the same sequence, the Km was 56 ± 15 µM in data set [2], 110 ± 30 µM in data set [3] (setting [4]) and 16 ± 3 µM in data set [3] (setting [5]). For the same sequence, the “kcat^app” value in data set [3] (FIH, 50 mM HEPES pH 7.5, 37 °C) is 1.7 ± 0.2 s⁻¹.

Consider “GSHMGSDLGKKLLEAARAGQDDEVRILMANGADVAAKDKNGSTPLHLAARNGHLEVVKLLLEAGADVNAQDKFGKTAFDISIDNGNEDLAEILQ [3CA, recombinant three-consensus ankyrin repeat protein produced in Escherichia coli]”, for which, in data set [1], the “Stopped-flow, 500 nm (FIH) kfall phase” value is 10.5 ± 0.1 s⁻¹. In addition, the “Stopped-flow, 500 nm (FIH) krise phase” value in data set [1] was 1.7 s⁻¹ and 1.7 ± 0.3 s⁻¹. Besides, the “Km^app(O2) fold higher than in the presence of 1CA and 2CA” value in data set [2] (FIH) came out at 2 fold. Moreover, the Km in data set [2] is 120 ± 20 µM; in data set [3] (setting [4]), 200 ± 60 µM; in data set [3] (setting [5]) it was 60 ± 15 µM. Moreover, the “kcat^app” value in data set [3] (FIH, 50 mM HEPES pH 7.5, 37 °C) is 0.6 ± 0.2 s⁻¹.

As to HLEVVKLLLEAGADVNAQDK [1CA20-mer], the “Stopped-flow, 500 nm (FIH) kfall phase” value in data set [1] is 17.6 ± 0.1 s⁻¹. Moreover, the “Stopped-flow, 500 nm (FIH) krise phase” value in data set [1] was 0.4 ± 0.1 s⁻¹. Besides, the Km was 40 ± 10 µM in data set [2], 290 ± 50 µM in data set [3] (setting [4]) and 25 ± 7 µM in data set [3] (setting [5]). Besides, in data set [3] (FIH, 50 mM HEPES pH 7.5, 37 °C), the “kcat^app” value stood at 1.6 ± 0.1 s⁻¹.

As for “ESYLLPELTRYDCEVNVPVLGSSTLLQGGDLLRAL [HIF-2α CAD35-mer]”, the “Stopped-flow, 500 nm (FIH) kfall phase” value in data set [1] amounted to 4.9 ± 0.2 s⁻¹. Moreover, in data set [1], the “Stopped-flow, 500 nm (FIH) krise phase” value was 0.017 ± 0.01 s⁻¹. The Km is 110 ± 10 µM in data set [2], 19 ± 6 µM in data set [3] (setting [4]) and 315 ± 40 µM in data set [3] (setting [5]). The “2OG concentration above which substrate inhibition was observed” value in data set [3] is above 700 µM. Further, the “kcat^app” value in data set [3] (FIH, 50 mM HEPES pH 7.5, 37 °C) came out at 0.049 ± 0.005 s⁻¹.
